Test system: TNFα secretion from murine elicited peritoneal macrophages
Test: Assay for inhibition of LPS-induced TNFα production
Format: cell-based, mouse
Settings: preliminary experiments
Source text: In order to assess the ability of a compound to reduce TNFα secretion in elicited mouse peritoneal macrophages, the following protocol was employed. […] (See Scales, W. E., S. W. Chensuc, I. Otterness and S. L. Kunkel, 1989, Regulation of monokine gene expression: Prostaglandin E2 suppresses tumor necrosis factor but not interleukin-1a or b-mRNA and cell-associated bioactivity, J. Leukocytc Biology 45:416-421.). (See also Renz, H., J-H. Gong, A. Schmidt, M. Nain and Diethard Gemsa, 1988, Release of tumor necrosis factor-a from macrophages. Enhancement and suppression are dose-dependently regulated by prostaglandin E2 and cyclic nucleotides, J. Immunol. 1 41:2388-2393). […] (See Noel, L. S., M. Verghese, K. M. Connelly, L. J. Sekut and S. A. Stimpson, 1992, Type IV-specific phosphodiesterase (PDE) inhibitors suppress murine TNFα expression in vitro and in vivo-(abstract)--6th International Conference, Inflammation Research Association). TNFα secretion from murine elicited peritoneal macrophages was used as a readout for a compound's ability to raise cAMP, and/or inhibit phosphodiesterase within a cell.
Mice (female C3H mice, 15-20 gm body weight) were injected intraperitoneally with 2 mL of 5 mM sodium periodate solution. […] TNFα protein in the supernatant fluids was measured using a commercially available enzyme-linked immunosorbant assay (ELISA) (Genzyme).

With `COc1ccc(C2CNC(=O)C2)cc1OC1CCCC1` (stereo not shown) [rolipram] the “LPS induced TNFα secretion from murine macrophages” value was “inhibited”.

— patent US5665754A, “Substituted pyrrolidines” (Glaxo Wellcome Inc., priority 1993, dated 1997)
